This is an account of results in the NIST ThermoML archive (doi:10.1021/je020206a).

This data set can be described thus: wn = mass fraction of the nth substance listed. The note with it: 101.3 kPa, Liquid, w1 = 0.3.

± gives the expanded uncertainty stated by the source.

For orientation: mass density means mass per unit of volume. The term viscosity denotes the resistance of a fluid to flow. As for `CC(C)(N)CO` [2-amino-2-methylpropan-1-ol] + O, the mass density runs as follows: (293.15 K) 999.85 ± 1.1 kg/m3; (298.15 K) 997.41 ± 1.1 kg/m3; (303.15 K) 994.62 ± 1.1 kg/m3; (308.15 K) 991.22 ± 1.1 kg/m3; (313.15 K) 988.72 ± 1.2 kg/m3; (318.15 K) 986.24 ± 1.2 kg/m3. Also, the mass density (323.15 K) came to 983.13 ± 1.3 kg/m3. The viscosity runs as follows: (293.15 K) 4.89 ± 0.43 mPa·s; (298.15 K) 3.79 ± 0.34 mPa·s; (303.15 K) 3.21 ± 0.29 mPa·s; (308.15 K) 2.8 ± 0.25 mPa·s; (313.15 K) 2.24 ± 0.21 mPa·s; (318.15 K) 1.92 ± 0.18 mPa·s. For the same molecule, under “323.15 K”, the viscosity is 1.58 ± 0.15 mPa·s.
On to `NCCO` [2-aminoethan-1-ol] + O, for which the mass density is, setting by setting: (293.15 K) 1015.3 ± 1.1 kg/m3; (298.15 K) 1012.1 ± 1.1 kg/m3; (303.15 K) 1009.2 ± 1.1 kg/m3; (308.15 K) 1004.9 ± 1.1 kg/m3; (313.15 K) 1003.2 ± 1.2 kg/m3; (318.15 K) 1001 ± 1.2 kg/m3. Besides, the mass density (323.15 K) was determined as 997.76 ± 1.3 kg/m3. The viscosity is listed as 2.63 ± 0.24 mPa·s (293.15 K); 2.2 ± 0.2 mPa·s (298.15 K); 2.1 ± 0.19 mPa·s (303.15 K); 1.85 ± 0.17 mPa·s (308.15 K); 1.6 ± 0.15 mPa·s (313.15 K); 1.5 ± 0.14 mPa·s (318.15 K). In addition, the viscosity (323.15 K) is reported as 1.29 ± 0.12 mPa·s.
With `CN(CCO)CCO` [N-methyldiethanolamine] + O, the mass density turned out to be 1032.2 ± 1.1 kg/m3 (293.15 K); 1027.5 ± 1.1 kg/m3 (298.15 K); 1023.1 ± 1.1 kg/m3 (303.15 K); 1019.9 ± 1.2 kg/m3 (308.15 K); 1018.2 ± 1.2 kg/m3 (313.15 K); 1014.2 ± 1.3 kg/m3 (318.15 K). Further, the mass density (323.15 K) came out at 1011.2 ± 1.3 kg/m3. In addition, the viscosity reads like this: (293.15 K) 3.46 ± 0.31 mPa·s; (298.15 K) 3.02 ± 0.27 mPa·s; (303.15 K) 2.68 ± 0.24 mPa·s; (308.15 K) 2.27 ± 0.21 mPa·s; (313.15 K) 1.92 ± 0.18 mPa·s; (318.15 K) 1.72 ± 0.16 mPa·s. The viscosity (323.15 K) worked out at 1.49 ± 0.14 mPa·s.
For the molecule `OCCNCCO` [diethanolamine] + O, the mass density reads like this: (293.15 K) 1042.7 ± 1.1 kg/m3; (298.15 K) 1037.4 ± 1.1 kg/m3; (303.15 K) 1033.2 ± 1.1 kg/m3; (308.15 K) 1029.1 ± 1.2 kg/m3; (313.15 K) 1026.4 ± 1.2 kg/m3; (318.15 K) 1022.7 ± 1.3 kg/m3. Also, under “323.15 K”, the mass density is recorded as 1019.3 ± 1.3 kg/m3. For the same molecule, the viscosity by setting is: (293.15 K) 4.22 ± 0.37 mPa·s; (298.15 K) 3.26 ± 0.3 mPa·s; (303.15 K) 2.57 ± 0.23 mPa·s; (308.15 K) 2.51 ± 0.23 mPa·s; (313.15 K) 1.97 ± 0.18 mPa·s; (318.15 K) 1.72 ± 0.16 mPa·s. For the same molecule, for the setting “323.15 K”, the viscosity came to 1.41 ± 0.13 mPa·s.
